PubChem BioAssay (NCI)
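Tested at 5 concentrations; 48 h exposure; 96-well plates; endpoints linearly interpolated, else capped at highest concentration. At the TGI there is no net growth.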

How the values were obtained:
Assay in all cases: NCI-60 cell line screen, 48 h
786-0 renal = tested on: 786-0 renal
A498 renal = tested on: A498 renal
A549 NSCLC = tested on: A549 NSCLC
ACHN renal = tested on: ACHN renal
BT-549 breast = tested on: BT-549 breast
CAKI-1 renal = tested on: CAKI-1 renal
CCRF-CEM leukemia = tested on: CCRF-CEM leukemia
COLO 205 colon = tested on: COLO 205 colon
DU-145 prostate = tested on: DU-145 prostate
EKVX NSCLC = tested on: EKVX NSCLC
HCC-2998 colon = tested on: HCC-2998 colon
HCT-116 colon = tested on: HCT-116 colon
HCT-15 colon = tested on: HCT-15 colon
HOP-62 NSCLC = tested on: HOP-62 NSCLC
HOP-92 NSCLC = tested on: HOP-92 NSCLC
HS 578T breast = tested on: HS 578T breast
HT29 colon = tested on: HT29 colon
IGROV1 ovarian = tested on: IGROV1 ovarian
K-562 leukemia = tested on: K-562 leukemia
KM12 colon = tested on: KM12 colon
LOX IMVI melanoma = tested on: LOX IMVI melanoma
M14 melanoma = tested on: M14 melanoma
MALME-3M melanoma = tested on: MALME-3M melanoma
MCF7 breast = tested on: MCF7 breast
MDA-MB-231 breast = tested on: MDA-MB-231 breast
MDA-MB-435 = tested on: MDA-MB-435
MDA-N = tested on: MDA-N
MOLT-4 leukemia = tested on: MOLT-4 leukemia
NCI-H23 lung = tested on: NCI-H23 lung
NCI-H460 lung = tested on: NCI-H460 lung
NCI-H522 lung = tested on: NCI-H522 lung
NCI/ADR-RES ovarian = tested on: NCI/ADR-RES ovarian
OVCAR-3 ovarian = tested on: OVCAR-3 ovarian
OVCAR-4 ovarian = tested on: OVCAR-4 ovarian
OVCAR-5 ovarian = tested on: OVCAR-5 ovarian
OVCAR-8 ovarian = tested on: OVCAR-8 ovarian
PC-3 prostate = tested on: PC-3 prostate
RPMI-8226 leukemia = tested on: RPMI-8226 leukemia
RXF 393 renal = tested on: RXF 393 renal
SF-268 CNS = tested on: SF-268 CNS
SF-295 CNS = tested on: SF-295 CNS
SF-539 CNS = tested on: SF-539 CNS
SK-MEL-2 melanoma = tested on: SK-MEL-2 melanoma
SK-MEL-28 melanoma = tested on: SK-MEL-28 melanoma
SK-MEL-5 melanoma = tested on: SK-MEL-5 melanoma
SK-OV-3 ovarian = tested on: SK-OV-3 ovarian
SN12C renal = tested on: SN12C renal
SNB-19 CNS = tested on: SNB-19 CNS
SNB-75 CNS = tested on: SNB-75 CNS
SR leukemia = tested on: SR leukemia
SW-620 colon = tested on: SW-620 colon
T-47D breast = tested on: T-47D breast
TK-10 renal = tested on: TK-10 renal
U251 CNS = tested on: U251 CNS
UACC-257 melanoma = tested on: UACC-257 melanoma
UACC-62 melanoma = tested on: UACC-62 melanoma
UO-31 renal = tested on: UO-31 renal
HL-60(TB) leukemia = tested on: HL-60(TB) leukemia
NCI-H226 lung = tested on: NCI-H226 lung

CC(=O)Oc1ccc(/C=C/C(=O)O[C@H]2CCCC[C@@H]2OC(=O)/C=C/c2ccc(OC(C)=O)c(OC(C)=O)c2)cc1OC(C)=O
TGI (786-0 renal): 36 µM | TGI (A498 renal): 38.2 µM | TGI (A549 NSCLC): > 100 µM | TGI (ACHN renal): 33.4 µM | TGI (BT-549 breast): 36.9 µM | TGI (CAKI-1 renal): > 100 µM | TGI (CCRF-CEM leukemia): 16.9 µM | TGI (COLO 205 colon): 46.6 µM | TGI (DU-145 prostate): 33.7 µM | TGI (EKVX NSCLC): 44 µM | TGI (HCC-2998 colon): 32.6 µM | TGI (HCT-116 colon): 20.3 µM | TGI (HCT-15 colon): 31.2 µM | TGI (HOP-62 NSCLC): 32.2 µM | TGI (HOP-92 NSCLC): 33.7 µM | TGI (HS 578T breast): > 100 µM | TGI (HT29 colon): > 100 µM | TGI (IGROV1 ovarian): 64.9 µM | TGI (K-562 leukemia): > 100 µM | TGI (KM12 colon): 60.2 µM | TGI (LOX IMVI melanoma): 15.4 µM | TGI (M14 melanoma): 25.6 µM | TGI (MALME-3M melanoma): 37.1 µM | TGI (MCF7 breast): 42.9 µM | TGI (MDA-MB-231 breast): > 100 µM | TGI (MDA-MB-435): 32.7 µM | TGI (MDA-N): 27.5 µM | TGI (MOLT-4 leukemia): 34.8 µM | TGI (NCI-H23 lung): 27 µM | TGI (NCI-H460 lung): > 100 µM | TGI (NCI-H522 lung): 22.3 µM | TGI (NCI/ADR-RES ovarian): > 100 µM | TGI (OVCAR-3 ovarian): 95.7 µM | TGI (OVCAR-4 ovarian): > 100 µM | TGI (OVCAR-5 ovarian): 28.4 µM | TGI (OVCAR-8 ovarian): 61.7 µM | TGI (PC-3 prostate): > 100 µM | TGI (RPMI-8226 leukemia): 31.9 µM | TGI (RXF 393 renal): 27.7 µM | TGI (SF-268 CNS): 32.6 µM | TGI (SF-295 CNS): 19 µM | TGI (SF-539 CNS): > 100 µM | TGI (SK-MEL-2 melanoma): 53.1 µM | TGI (SK-MEL-28 melanoma): 33.1 µM | TGI (SK-MEL-5 melanoma): 15.1 µM | TGI (SK-OV-3 ovarian): 27.4 µM | TGI (SN12C renal): 29.8 µM | TGI (SNB-19 CNS): 27.6 µM | TGI (SNB-75 CNS): 58.3 µM | TGI (SR leukemia): > 100 µM | TGI (SW-620 colon): 10.6 µM | TGI (T-47D breast): 47.1 µM | TGI (TK-10 renal): 63.2 µM | TGI (U251 CNS): > 100 µM | TGI (UACC-257 melanoma): 52.6 µM | TGI (UACC-62 melanoma): 17.7 µM | TGI (UO-31 renal): 20.6 µM

COc1ccccc1-c1cc(=O)c2ccc(OC)c(OC)c2o1
TGI (786-0 renal): > 100 µM | TGI (A498 renal): > 100 µM | TGI (A549 NSCLC): > 100 µM | TGI (ACHN renal): > 100 µM | TGI (BT-549 breast): > 100 µM | TGI (CAKI-1 renal): > 100 µM | TGI (CCRF-CEM leukemia): > 100 µM | TGI (COLO 205 colon): > 100 µM | TGI (DU-145 prostate): > 100 µM | TGI (EKVX NSCLC): > 100 µM | TGI (HCC-2998 colon): > 100 µM | TGI (HCT-116 colon): > 100 µM | TGI (HCT-15 colon): > 100 µM | TGI (HL-60(TB) leukemia): > 100 µM | TGI (HOP-62 NSCLC): > 100 µM | TGI (HOP-92 NSCLC): > 100 µM | TGI (HS 578T breast): > 100 µM | TGI (HT29 colon): > 100 µM | TGI (IGROV1 ovarian): > 100 µM | TGI (K-562 leukemia): > 100 µM | TGI (LOX IMVI melanoma): > 100 µM | TGI (M14 melanoma): > 100 µM | TGI (MALME-3M melanoma): > 100 µM | TGI (MCF7 breast): > 100 µM | TGI (MDA-MB-231 breast): > 100 µM | TGI (MDA-MB-435): > 100 µM | TGI (MDA-N): > 100 µM | TGI (MOLT-4 leukemia): > 100 µM | TGI (NCI-H226 lung): > 100 µM | TGI (NCI-H23 lung): > 100 µM | TGI (NCI-H460 lung): > 100 µM | TGI (NCI-H522 lung): > 100 µM | TGI (NCI/ADR-RES ovarian): > 100 µM | TGI (OVCAR-3 ovarian): > 100 µM | TGI (OVCAR-4 ovarian): > 100 µM | TGI (OVCAR-5 ovarian): > 100 µM | TGI (OVCAR-8 ovarian): > 100 µM | TGI (RPMI-8226 leukemia): > 100 µM | TGI (RXF 393 renal): > 100 µM | TGI (SF-268 CNS): > 100 µM | TGI (SF-295 CNS): > 100 µM | TGI (SF-539 CNS): > 100 µM | TGI (SK-MEL-2 melanoma): > 100 µM | TGI (SK-MEL-28 melanoma): > 100 µM | TGI (SK-MEL-5 melanoma): > 100 µM | TGI (SK-OV-3 ovarian): > 100 µM | TGI (SN12C renal): > 100 µM | TGI (SNB-19 CNS): > 100 µM | TGI (SNB-75 CNS): > 100 µM | TGI (SR leukemia): > 100 µM | TGI (SW-620 colon): > 100 µM | TGI (T-47D breast): 75.5 µM | TGI (TK-10 renal): > 100 µM | TGI (U251 CNS): > 100 µM | TGI (UACC-257 melanoma): > 100 µM | TGI (UACC-62 melanoma): > 100 µM | TGI (UO-31 renal): > 100 µM
